Laboratory results reported in paper PMC4995692, “An assay to measure poly(ADP ribose) glycohydrolase (PARG) activity in cells” (F1000Research, 2016).
Entries after “also recorded” stand apart in the source; their conditions may differ.

Columns and labels:
PARG = PARG (Homo sapiens, UniProt Q86W56); assay: PAR chain assay in SW620 cells with temozolomide; type: cell-based
control Hela cells = assay: Growth inhibition by MMS in control Hela cells; type: cell-based; details: Homo sapiens, 120 h, 5 days
[1] = tested on: nuclear PAR chains in Hela cells; type: cell-based, human; details: 250 µg/mL MMS
Description: Exponentially growing HeLa cells were trypsinized and resuspended in complete media before being filtered through a […] cell strainer (#352340, BD Falcon, Oxford, UK). Cells were then counted using a Muse cell counter (Merck Millipore, Hertfordshire, UK) and seeded in 30 µL of media at 4×10 ^4 cells/mL in Greiner 384-well plates (#781091, Greiner Bio-One, Stonehouse, UK) and placed in a cell culture incubator. After 16–24 h the plates were centrifuged briefly at 164× g and the cells dosed with compound(s) or vehicle (DMSO) control using an Echo 550 (Labcyte, Dublin, Ireland). […] After 1 h the plate was re-spun and cells co-dosed with different concentrations of MMS (50–250 µg/mL final concentration) or DMSO using the Echo 550 and incubated for a given time (30 min–2 h) at 37°C in a cell culture incubator. […] Following three washes with PBS, the plates were sealed and images captured using a 10× objective on a CellInsight (ThermoFisher) and analysed using Cellomics Scan compartmental analysis software (ThermoFisher). A threshold determined by assessing the signal in DMSO treated cells was applied to the pixel intensity and a Box Detection application was used to detect objects smaller than five pixels in radius within the nucleus. […]

[2] = tested on: PARG KD Hela cells (PARG Silencix); assay: Growth inhibition by MMS in PARG KD Hela cells; type: cell-based; details: Homo sapiens, 120 h, 5 days
SW620 cells = assay: SW620 proliferation after MMS (Hoechst stain); type: cell-based, human; details: MMS 72 h
[3] = tested on: PAR chains in PARG KD cells; assay: PAR chain detection after MMS, preliminary western blot; type: cell-based, human; details: 250 µg/mL MMS
[4] = tested on: Murine embryonic fibroblasts (MEFs); assay: SRB assay, MMS sensitivity of MEFs; type: cell-based; details: Mus musculus, Fibroblast, 72 h
Description: (§1) Cells in 96-well plates were fixed with the addition of 100 µL ice cold 10% trichloroacetic acid to the media. After 1 h at 4°C, the cells were washed twice with PBS and left to dry. Once dry, 100 µL 0.2% sulforhodamine B (SRB) was add to each well and incubated for 15 min at room temperature. The cells were washed three times with 200 µL 1% acetic acid and then dried. To solubilise the remaining SRB, 200 µL 10 mM Tris pH10.5 was added to each well and the plate incubated with agitation for 10 min. Absorbance at 520 nm was measured on a plate reader (Biotek, Swindon, UK).

H1048 cells = assay: SRB assay, MMS sensitivity of H1048; type: cell-based; details: Homo sapiens, NCI-H1048, 72 h
Description: as §1

Sequence of PARG (Q86W56 whole entry): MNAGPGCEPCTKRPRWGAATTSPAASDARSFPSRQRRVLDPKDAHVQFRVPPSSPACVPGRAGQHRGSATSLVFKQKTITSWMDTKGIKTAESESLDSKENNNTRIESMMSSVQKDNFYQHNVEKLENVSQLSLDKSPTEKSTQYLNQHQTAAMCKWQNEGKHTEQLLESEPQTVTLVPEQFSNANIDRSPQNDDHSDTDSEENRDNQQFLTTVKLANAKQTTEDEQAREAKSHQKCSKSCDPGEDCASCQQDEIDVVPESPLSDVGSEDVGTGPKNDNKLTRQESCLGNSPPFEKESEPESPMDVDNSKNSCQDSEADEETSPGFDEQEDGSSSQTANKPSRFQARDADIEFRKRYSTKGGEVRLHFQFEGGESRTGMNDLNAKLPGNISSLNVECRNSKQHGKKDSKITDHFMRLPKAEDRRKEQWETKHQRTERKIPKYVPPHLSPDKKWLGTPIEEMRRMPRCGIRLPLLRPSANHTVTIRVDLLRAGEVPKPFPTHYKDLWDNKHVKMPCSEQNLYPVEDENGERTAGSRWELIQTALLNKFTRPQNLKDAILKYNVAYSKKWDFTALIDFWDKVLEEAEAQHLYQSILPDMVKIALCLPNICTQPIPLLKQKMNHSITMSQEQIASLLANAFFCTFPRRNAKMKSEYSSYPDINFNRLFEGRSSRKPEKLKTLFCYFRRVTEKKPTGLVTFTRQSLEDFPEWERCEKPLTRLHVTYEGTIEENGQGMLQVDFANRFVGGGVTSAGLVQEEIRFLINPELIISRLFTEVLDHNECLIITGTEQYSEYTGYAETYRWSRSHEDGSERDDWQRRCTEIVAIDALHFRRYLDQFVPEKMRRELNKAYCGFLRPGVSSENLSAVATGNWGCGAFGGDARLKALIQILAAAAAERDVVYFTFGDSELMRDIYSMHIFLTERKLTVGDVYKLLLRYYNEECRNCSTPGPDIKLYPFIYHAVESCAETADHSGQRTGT

Cn1nnc2c(C(N)=O)ncn2c1=O [TMZ, Temozolomide]
PAR signal (PARG; one hour after TMZ alone): no PAR signal detectable

O=C(c1cc(Cc2n[nH]c(=O)c3ccccc23)ccc1F)N1CCN(C(=O)C2CC2)CC1 [olaparib]
PAR signal (PARG; increasing concentrations of compound, 150 µg/mL temozolomide for 1 h): did not lead to any increase; also recorded: no effect
PAR signal (PARG; pre-treated at 300 nM, 1 h temozolomide 1.5-200 µg/mL): no effect

COS(C)(=O)=O [MMS, Methylmethanesulfonate]
IC50 (control Hela cells): 16.5 µg/mL
time of maximum nuclear PAR signal [1]: 25 min
IC50 [2]: 6.2 µg/mL
proliferation (SW620 cells): dose-dependent decrease
time of peak of PAR chains after MMS addition [3]: approximately 20 min
IC50 [4]: 14.5 µM
IC50 (H1048 cells): 9 µM
